Data from US20220177462A1, “SUBSTITUTED HETEROCYCLIC AMIDE COMPOUND AND PREPARATION METHOD THEREFOR AND PHARMACEUTICAL USE THEREOF” (GENFLEET THERAPEUTICS (SHANGHAI) INC., priority 2019, published 2022).

Test system: U937 cells
Assay: Inhibitory activity against programmed necroptosis of U937 cells induced by TNF-α
Format: cell-based, human
Conditions: Homo sapiens, U-937, 48 h, 100 ng/ml human TNF-α and 25 μM Q-VD-Oph, 48 hours, CellTiter-Glo survival rate; read-out: U937 IC50
Method: The U937 cell strain which was used in the following Testing Examples was derived from ATCC, No.: CRL-1593.2, batch No.: 63479999, culture medium: RPMI-1640+10% FBS.
The compound was dissolved in DMSO to prepare a 10 mM stock solution. The stock solution was diluted in 3.16 folds with DMSO to a series of gradient concentrations. Then, the resultant solution was diluted in 250 folds with a culture medium to prepare a working solution. The U937 cells were inoculated in a 384-well plate at 5000/well. The compound at respective concentration was added to each of the cells, and was mixed with the cells homogeneously. 100 ng/ml human TNF-α and 25 μM Q-VD-Oph were added simultaneously to induce programmed necroptosis of the cells. The final concentration of DMSO was 2%. The cells were placed in the incubator at 37° C. and 5% CO2 for further culture of 48 hours. Celltiter-Glo reagent was used for detection. After adequate pyrolysis reaction, the chemiluminescence readout value was recorded by a microplate reader. The survival rate was calculated from the detection results using the equation as follows: SR (%)=(RLU compound−RLU blank)/(RLU high control−RLU blank)×100%. The survival rate was plotted against the final concentration of respective compound using a 4-parameter fitting to calculate the inhibitory IC50 of the compound against programmed necroptosis of cells induced by TNF-a.

Going from `COc1ncc(-c2ccc3nc(N)sc3c2)cc1C(=O)NCc1cc(F)ccc1OC1CCCC1` [Compound Z19, 5-(2-aminobenzo[d]thiazol-6-yl)-N-(2-(cyclopentyloxy)-5-fluorobenzyl)-2-methoxynicotinamide] to `COc1ncc(-c2ccc3nc(N)sc3c2)cc1C(=O)NCc1c(F)cccc1OC1CCCC1` [Compound Z18, 5-(2-aminobenzo[d]thiazol-6-yl)-N-(2-(cyclopentyloxy)-6-fluorobenzyl)-2-methoxynicotinamide], the IC50 falls from 7 nM to 4 nM (1.8-fold).

Going from `COc1ncc(-c2ccc3nc(N)sc3c2)cc1C(=O)Nc1cnn(C(C)c2ccc(F)cc2)c1` (stereo not drawn) [Compound Z63, 5-(2-aminobenzo[d]thiazol-6-yl)-N-(1-(1-(4-fluorophenyl)ethyl)-1H-pyrazol-4-yl)-2-methoxynicotinamide] to `COc1ncc(-c2ccc3nc(N)sc3c2)cc1C(=O)NCc1ccccc1OC(C)C` [Compound Z50, 5-(2-aminobenzo[d]thiazol-6-yl)-N-(2-isopropoxybenzyl)-2-methoxynicotinamide], the IC50 rises from 7 nM to 49 nM (7-fold).

`COc1ncc(-c2ccc3nc(N)sc3c2)cc1C(=O)NCCCc1ccccc1` [Compound Z16, 5-(2-aminobenzo[d]thiazol-6-yl)-2-methoxy-N-(3-phenylpropyl)nicotinamide] and `COc1ncc(-c2ccc3nc(N)sc3c2)cc1C(=O)NCc1ccccc1OCC1CC1` [Compound Z20, 5-(2-aminobenzo[d]thiazol-6-yl)-N-(2-(cyclopropylmethoxy)benzyl)-2-methoxynicotinamide] are within 1.5-fold of each other in IC50: 26 nM for the first, 18 nM for the second.

`COc1ncc(-c2ccc3nc(N)sc3c2)cc1C(=O)NC(C)c1ccccc1OC(F)(F)F` (single isomer, unassigned) [Compound Z1, 5-(2-aminobenzothiazol-6-yl)-2-methoxy-N-(1-(2-(trifluoromethoxy)phenyl)ethyl)nicotinamide] and `CC(NC(=O)c1cc(-c2ccc3nc(N)sc3c2)cnc1N)c1ccccc1OC(F)(F)F` (stereo not drawn) [Compound Z46, 2-amino-5-(2-aminobenzo[d]thiazol-6-yl)-N-(1-(2-(trifluoromethoxy)phenyl)ethyl)nicotinamide] are within 1.5-fold of each other in IC50: 52 nM for the first, 76 nM for the second.

`CC(NC(=O)c1cc(-c2ccn3nc(N)nc3c2)c2cc[nH]c2c1)c1ccccc1OC(F)(F)F` (stereo not drawn) [Compound Z25, 4-(2-amino-[1,2,4]triazolo[1,5-a]pyridin-7-yl)-N-(1-(2-(trifluoromethoxy)phenyl)ethyl)-1H-indole-6-carboxamide] and `CC(NC(=O)c1cc(-c2ccn3nc(N)nc3c2)cc2[nH]ccc12)c1ccccc1OC(F)(F)F` (stereo not drawn) [Compound Z24, 6-(2-amino-[1,2,4]triazolo[1,5-a]pyridin-7-yl)-N-(1-(2-(trifluoromethoxy)phenyl)ethyl)-1H-indole-4-carboxamide] are within 1.5-fold of each other in IC50: 140 nM for the first, 151 nM for the second.

`COc1ncc(C(=O)NCc2cc(F)ccc2OC2CCCC2)cc1-c1ccc2nc(N)sc2c1` [Compound Z13, 5-(2-aminobenzo[d]thiazol-6-yl)-N-(2-(cyclopentyloxy)-5-fluorobenzyl)-6-methoxynicotinamide] and `COc1ncc(-c2ccc3nc(N)sc3c2)cc1C(=O)NCc1cccnc1OC1CCCC1` [Compound Z52, 5-(2-aminobenzo[d]thiazol-6-yl)-N-((2-(cyclopentyloxy)pyridin-3-yl)methyl)-2-methoxynicotinamide] are within 1.5-fold of each other in IC50: 17 nM for the first, 19 nM for the second.

Compared with `Cn1ncc2c(-c3ccn4nc(N)nc4c3)cc(C(=O)NCc3cc(F)ccc3OC3CCOCC3)cc21` [Compound Z61, 4-(2-amino-[1,2,4]triazolo[1,5-a]pyridin-7-yl)-N-(5-fluoro-2-((tetrahydro-2H-pyran-4-yl)oxy)benzyl)-1-methyl-1H-indazole-6-carboxamide], `Cn1ncc2c(-c3ccn4nc(N)nc4c3)cc(C(=O)NCc3cc(F)ccc3OC3CCOC3)cc21` (stereo not drawn) [Compound Z62, 4-(2-amino-[1,2,4]triazolo[1,5-a]pyridin-7-yl)-N-(5-fluoro-2-((tetrahydrofuran-3-yl)oxy)benzyl)-1-methyl-1H-indazole-6-carboxamide] is 15-fold higher in IC50: 2 nM for the first, 30 nM for the second. The first is the more potent here.

Going from `Cc1ncc(-c2ccc3nc(N)sc3c2)cc1C(=O)NCc1c(F)cccc1OCC1CCCC1` [Compound Z12, 5-(2-aminobenzo[d]thiazol-6-yl)-N-(2-(cyclopentylmethoxy)-6-fluorobenzyl)-2-methylnicotinamide] to `Nc1nc2ccc(-c3cncc(C(=O)NCc4ccccc4OCC4CC4)c3)cc2s1` [Compound Z22, 5-(2-aminobenzo[d]thiazol-6-yl)-N-(2-(cyclopropylmethoxy)benzyl)nicotinamide], the IC50 rises from 10 nM to 62 nM (6.2-fold).

First: Cn1ncc2c(-c3ccn4nc(N)nc4c3)cc(C(=O)NCc3cc(F)ccc3OCC3CC3)cc21 [Compound Z59, 4-(2-amino-[1,2,4]triazolo[1,5-a]pyridin-7-yl)-N-(2-(cyclopropylmethoxy)-5-fluorobenzyl)-1-methyl-1H-indazole-6-carboxamide]
Second: Cn1ncc2c(-c3ccn4nc(N)nc4c3)cc(C(=O)NCc3cccnc3OC3CCCC3)cc21 [Compound Z57, 4-(2-amino-[1,2,4]triazolo[1,5-a]pyridin-7-yl)-N-((2-(cyclopentyloxy)pyridin-3-yl)methyl)-1-methyl-1H-indazole-6-carboxamide]
The IC50 of the first is 2.2-fold higher: 24 nM for the first, 11 nM for the second. The second is the more potent here.

Compared with `COc1ncc(-c2ccc3nc(N)sc3c2)cc1C(=O)NC(C)c1c(F)cccc1OC(F)(F)F` (stereo not drawn) [Compound Z48, 5-(2-aminobenzo[d]thiazol-6-yl)-N-(1-(2-fluoro-6-(trifluoromethoxy)phenyl)ethyl)-2-methoxynicotinamide], `COc1ncc(-c2ccc3nc(N)sc3c2)cc1C(=O)NCc1cc(OC(F)(F)F)ccc1F` [Compound Z14, 5-(2-aminobenzo[d]thiazol-6-yl)-N-(2-fluoro-5-(trifluoromethoxy)benzyl)-2-methoxynicotinamide] is 15-fold lower in IC50: 88 nM for the first, 6 nM for the second.

Compared with `COc1nc(C)c(-c2ccc3nc(N)sc3c2)cc1C(=O)NCc1ccccc1OC1CCOC1` (stereo not drawn) [Compound Z40, 5-(2-aminobenzo[d]thiazol-6-yl)-2-methoxy-6-methyl-N-(2-((tetrahydrofuran-3-yl)oxy)benzyl)nicotinamide], `COc1ncc(-c2ccc3nc(N)sc3c2)cc1C(=O)NCc1ccccc1OC1CCOC1` (stereo not drawn) [Compound Z53, 5-(2-aminobenzo[d]thiazol-6-yl)-2-methoxy-N-(2-((tetrahydrofuran-3-yl)oxy)benzyl)nicotinamide] is 1.6-fold lower in IC50: 68 nM for the first, 42 nM for the second. The second is the more potent here.

`COc1nc(C)c(-c2ccc3nc(N)sc3c2)cc1C(=O)NCc1cc(F)cc(F)c1OCC1CC1` [Compound Z38, 5-(2-aminobenzo[d]thiazol-6-yl)-N-(2-(cyclopropylmethoxy)-3,5-difluorobenzyl)-2-methoxy-6-methylnicotinamide] and `COc1nc(C)c(-c2ccc3nc(N)sc3c2)cc1C(=O)NCc1cccnc1OC1CCCC1` [Compound Z41, 5-(2-aminobenzo[d]thiazol-6-yl)-N-((2-(cyclopentyloxy)pyridin-3-yl)methyl)-2-methoxy-6-methylnicotinamide] are the same in IC50: 14 nM for the first, 14 nM for the second.

First: CC(NC(=O)c1cnc(Cl)c(-c2ccc3nc(N)sc3c2)c1)c1ccccc1OC(F)(F)F (stereo not drawn) [Compound Z8, 5-(2-aminobenzo[d]thiazol-6-yl)-6-chloro-N-(1-(2-(trifluoromethoxy)phenyl)ethyl)nicotinamide]
Second: COc1nc(C)c(-c2ccc3nc(N)sc3c2)cc1C(=O)NC(C)c1ccccc1OC(F)(F)F (stereo not drawn) [Compound Z37, 5-(2-aminobenzo[d]thiazol-6-yl)-2-methoxy-6-methyl-N-(1-(2-(trifluoromethoxy)phenyl)ethyl)nicotinamide]
The IC50 of the first is 2-fold higher: 88 nM for the first, 45 nM for the second.

`Cc1ncc(-c2ccc3nc(N)sc3c2)cc1C(=O)NC(C)c1cc(OC(F)(F)F)ccc1F` (stereo not drawn) [Compound Z43, 5-(2-aminobenzo[d]thiazol-6-yl)-N-(1-(2-fluoro-5-(trifluoromethoxy)phenyl)ethyl)-2-methylnicotinamide] and `COc1ncc(-c2ccc3nc(N)sc3c2)cc1C(=O)N1CCCC(Cc2ccc(F)cc2)C1` (stereo not drawn) [Compound Z17, (5-(2-aminobenzo[d]thiazol-6-yl)-2-methoxypyridin-3-yl)(3-(4-fluorobenzyl)piperidin-1-yl)methanone] are within 1.5-fold of each other in IC50: 3 nM for the first, 4 nM for the second.

Compared with `COc1nc(C)c(-c2ccc3nc(N)sc3c2)cc1C(=O)NCc1ccccc1OC(C)C` [Compound Z42, 5-(2-aminobenzo[d]thiazol-6-yl)-N-(2-isopropoxybenzyl)-2-methoxy-6-methylnicotinamide], `CC(c1ccc(F)cc1)n1cc(NC(=O)c2cc(-c3ccn4nc(N)nc4c3)c3cnn(C)c3c2)cn1` (stereo not drawn) [Compound Z60, 4-(2-amino-[1,2,4]triazolo[1,5-a]pyridin-7-yl)-N-(1-(1-(4-fluorophenyl)ethyl)-1H-pyrazol-4-yl)-1-methyl-1H-indazole-6-carboxamide] is 5-fold higher in IC50: 43 nM for the first, 213 nM for the second.
